This is an account of results in patent publication US4304861A, “Process of producing antibiotic SM-173B with Streptomyces chromofuscus” (Hoffmann-La Roche Inc., priority 1977, dated 1981).

Values after ≈ are worked out from the molar mass of the structure shown.

One data set concerns mycobacteria. Put plainly: Antibiotic activity (summary of MIC table). It counts as cell-based. The source says:
(§1) The antibacterial spectrum is evident from the following Table:
(§2) Minimum Inhibitory Concentration (MIC)
(§3) Test organism MIC (μg/ml)

Another data set concerns gram-positive bacteria. Put plainly: Antibiotic activity (summary of MIC table). The note with it: a large number of gram-positive bacteria. In kind it is cell-based.
Excerpt: as §1, §2, §3

A short description of data set [1]: Acidity (physico-chemical properties). It counts as physicochemical.
The nature of data set [2]: Toxicity, intraperitoneal administration to mice. The note with it: mouse, in vivo, ip. The method, then:
The LD50 is greater than 200 mg/kg in the case of intraperitoneal administration to mice.

In the next data set the test system is Bacillus cereus. Description: Minimum Inhibitory Concentration (MIC), antibacterial spectrum. It counts as cell-based.
Excerpt: as §1, §2, §3

The test system of a further data set is Micrococcus flavus. Described as above. It counts as cell-based.
Excerpt: as §1, §2, §3

The test system of data set [3] is Staphylococcus aureus 209P. Described as above. It counts as cell-based.
Excerpt: as §1, §2, §3

The test system of another data set is Aspergillus niger. Described as above. It counts as cell-based.
Excerpt: as §1, §2, §3

The next data set relates to Penicillium citrinum. The data set is described as above. It counts as cell-based.
Excerpt: as §1, §2, §3

The subject of data set [4] is Staphylococcus epidermidis. Described as above. In kind it is cell-based.
Excerpt: as §1, §2, §3

The next data set concerns Mycobacterium smegmatis. The data set is described as above. The note with it: Mycolicibacterium smegmatis. It counts as cell-based.
Excerpt: as §1, §2, §3

The test system of a further data set is Mycobacterium avium. The description is as above. It counts as cell-based.
Excerpt: as §1, §2, §3

Data set [5] relates to Mycobacterium rhodochrous. Described as above. In kind it is cell-based.
Excerpt: as §1, §2, §3

For another data set, the system named is Bacillus subtilis. Described as above. In kind it is cell-based.
Excerpt: as §1, §2, §3

Another data set deals with Echerichia coli. Described as above. It counts as cell-based.
Excerpt: as §1, §2, §3

A further data set has as its system Sarcina lutea. Described as above. It counts as cell-based. The note with it: Micrococcus luteus.
Excerpt: as §1, §2, §3

The nature of another data set: Solubility. In kind it is physicochemical.

`COC1Cc2c(cc3c(c2O)C(=O)c2c(O)cccc2C3=O)C(=O)C1(C)O` (stereo not drawn) [Antibiotic SM-173B]: the antibiotic activity result with mycobacteria and in the data set on gram-positive bacteria was “antibiotically active” each time. Moreover, in data set [1], the acidity result is recorded as “weakly acid”. For the same compound, the LD50 in data set [2] was > 200 mg/kg. For the same compound, the MIC against Bacillus cereus was determined as 6.26 µg/mL (≈ 17 µM); in the data set on Micrococcus flavus, 6.25 µg/mL (≈ 17 µM); in data set [3], 6.25 µg/mL (≈ 17 µM); with Aspergillus niger, 100 µg/mL (≈ 271 µM); with Penicillium citrinum, 100 µg/mL (≈ 271 µM); in [4], 3.13 µg/mL (≈ 8.5 µM). Besides, the minimum inhibitory concentration (MIC) worked out at 3.13 µg/mL (≈ 8.5 µM) against Mycobacterium smegmatis; 6.25 µg/mL (≈ 17 µM) in the data set with Mycobacterium avium; 3.13 µg/mL (≈ 8.5 µM) in data set [5]; 6.25 µg/mL (≈ 17 µM) against Bacillus subtilis; 100 µg/mL (≈ 271 µM) against Echerichia coli; 12.5 µg/mL (≈ 33.9 µM) in the data set with Sarcina lutea. Further, the Solubility entry in “Solubility” (in methanol, ethanol, butanol, acetone, chloroform, ethyl acetate) is given as “Soluble”; in “Solubility” (in n-hexane) it was “poorly soluble”; in the data set “Solubility” (in petroleum ether), “insoluble”; in the data set “Solubility” (in water) it was “insoluble”; in the data set “Solubility” (in water under alkaline conditions) it was “Soluble”.
